Legend:
[1] = molecular target: T1, Sirt1 (Mus musculus, UniProt Q923E4); assay: OVA aeroallergen-induced adaptive Th2 lung inflammation in mice treated with Sirt1 inhibitor; type: in vivo; details: OVA sensitized and challenged, 0.4 mg/kg body weight per day i.p. one hour before every antigen challenge, vs DMSO vehicle
T1 construct: from tissue; host or cells: whole living mice (WT and Chi3l1-/-); read-outs in lung/BAL and epididymal fat pads
T1 sequence (Q923E4 1-737): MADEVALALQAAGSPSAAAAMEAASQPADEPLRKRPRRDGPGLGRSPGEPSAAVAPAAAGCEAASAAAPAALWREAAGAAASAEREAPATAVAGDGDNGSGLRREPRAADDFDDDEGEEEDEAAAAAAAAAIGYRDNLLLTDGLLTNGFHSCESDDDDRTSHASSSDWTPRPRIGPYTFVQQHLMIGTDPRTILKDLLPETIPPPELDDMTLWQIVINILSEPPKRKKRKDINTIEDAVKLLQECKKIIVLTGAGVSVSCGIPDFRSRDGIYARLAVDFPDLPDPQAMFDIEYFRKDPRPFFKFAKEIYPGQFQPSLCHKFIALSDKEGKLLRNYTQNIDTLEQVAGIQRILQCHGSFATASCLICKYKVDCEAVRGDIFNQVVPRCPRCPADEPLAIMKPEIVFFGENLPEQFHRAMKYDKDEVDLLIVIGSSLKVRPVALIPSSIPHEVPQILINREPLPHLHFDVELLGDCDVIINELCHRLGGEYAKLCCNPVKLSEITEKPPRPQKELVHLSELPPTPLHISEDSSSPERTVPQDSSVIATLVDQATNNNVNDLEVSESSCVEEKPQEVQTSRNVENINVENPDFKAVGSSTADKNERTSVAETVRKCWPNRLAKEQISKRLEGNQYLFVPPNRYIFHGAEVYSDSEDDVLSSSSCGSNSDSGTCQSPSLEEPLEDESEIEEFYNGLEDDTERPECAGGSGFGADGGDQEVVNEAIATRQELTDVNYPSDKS
Method: WT and Chit3l1^−/− mice were sensitized and challenged with OVA (ova+) or PBS (ova−) and were treated with Sirtinol or its vehicle (DMSO). Each animal received drug (0.4 mg/kg body weight per day) or vehicle one hour before every antigen challenge. FIGS. 6A-6B depict BAL total cell and eosinophil recovery, FIG. 6C depicts H&E photomicrographs of lungs from WT and Chi3l1^−/− mice treated with sirtinol or vehicle after OVA challenge, FIGS. 6D-6H depict the levels of mRNA encoding IL-4, IL-13, IL-17, IL-6 and TNF-α in the lungs of WT and Chi3l1^−/− mice treated with Sirtinol or DMSO. The noted values represent the mean±SEM of a minimum of 5 animals. (*p≦0.05, **p≦0.01). Mice were sensitized and challenged with ovalbumin (OVA) as previously described (20). One day after last challenge, the mice were sacrificed, bronchoalveolar lavage (BAL) was undertaken, and tissue responses were evaluated. Sirtinol, a Sirt1 inhibitor (Enzo Life Sciences) or vehicle control (0.05% dimethyl sulofoxide) were diluted with Phosphate Buffered Saline (PBS) and administered via an intraperitoneal (i.p.) route.

[2] = molecular target: T1, Sirt1; assay: Visceral (epididymal) fat accumulation in mice treated with Sirt1 inhibitor; type: in vivo; details: 0.4 mg/kg body weight per day i.p. twice per week for 5 weeks, vs DMSO vehicle
Method: WT and Chi3l1^−/− mice were treated with Sirtinol or its vehicle (DMSO) and fat accumulation was assessed. Each animal received drug (0.4 mg/kg body weight per day) or vehicle twice per week for 5 weeks. FIG. 7A depicts a representative photograph illustrating abdominal fat accumulation, FIG. 7B depicts the weight of epididymal fat pads from WT and chi3l1^−/− mice. The noted values represent the mean±SEM of a minimum of 5 animals. (*P≦0.05, **p≦0.01). Sirtinol, a Sirt1 inhibitor (Enzo Life Sciences) or vehicle control (0.05% dimethyl sulofoxide) were diluted with Phosphate Buffered Saline (PBS) and administered via an intraperitoneal (i.p.) route.

## CC(NC(=O)c1ccccc1/N=C/c1c(O)ccc2ccccc12)c1ccccc1 (stereo not shown) [Sirtinol]
[1]; Chi3l1 null mice
  aeroallergen induced Th2 inflammation and Th2, IL-17 and IL-6 cytokine expression, and airway mucus: restored
[1]; WT mice
  aeroallergen-induced Th2 inflammation and Th2, IL-17 and IL-6 cytokine production and mucus production in the lung: diminished
[2]; Chi3l1 null mice
  levels of visceral fat: restored
[2]; WT mice
  levels of visceral fat: did not significantly alter

From patent publication US20160166520A1, “METHODS AND COMPOSITIONS RELATING TO THE TREATMENT OF VISCERAL FAT AND ASTHMA” (YALE UNIVERSITY, priority 2014, published 2016)
